# Measurements: patent US8618151B2, “Inhibitors of HCV NS5A” (Presidio Pharmaceuticals, Inc., priority 2008, dated 2013)
# Test system: HCV genotype 1b replicon
# Assay: HCV replicon assay (1b_Huh-Luc/Neo-ET cell line, luciferase readout)
# Type: cell-based
# Settings: Hepatitis C virus, Huh-7, 72 h, read-out: Inhibition of HCV genotype 1b
# In short: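 1b_Huh-Luc/Neo-ET Huh 7 cells carrying a bicistronic genotype 1b replicon; compounds added in triplicate the day after plating, 72 h incubation, then Bright-Glo luciferase read-out. Signal expressed as % of control; EC50 from curve fit, repeated several times.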
row,SMILES,EC50 [nM]
1,COC(=O)N[C@H](C(=O)N1CCC[C@H]1c1ncc(-c2ccc(-c3ccc4cc(-c5cnc([C@@H]6CCCN6C(=O)[C@H](NC(=O)OC)c6ccccc6)[nH]5)ccc4n3)c(F)c2)[nH]1)C(C)C [compound 119],< 1
2,COC(=O)N[C@H](C(=O)N1CCC[C@H]1c1ncc(-c2ccc(-c3ccc4cc(-c5cnc([C@@H]6CCCN6C(=O)[C@@H](NC(=O)OC)C6CCOCC6)[nH]5)ccc4n3)c(F)c2)[nH]1)C(C)C [compound 120],< 1
3,COC(=O)N[C@H](C(=O)N1CCC[C@H]1c1ncc(-c2ccc(-c3ccc4cc(-c5cnc([C@@H]6CCCN6C(=O)[C@H](NC(=O)OC6CCOCC6)c6ccccc6)[nH]5)ccc4n3)c(F)c2)[nH]1)C(C)C [compound 121],< 1
4,COC(=O)N[C@H](C(=O)N1CCC[C@H]1c1ncc(-c2ccc(-c3ccc4cc(-c5cnc([C@@H]6CCCN6C(=O)[C@H](NC(=O)OC(C)(C)C)c6ccccc6)[nH]5)ccc4n3)c(F)c2)[nH]1)C(C)C [compound 122],< 1
5,COC(=O)N[C@H](C(=O)N1CCC[C@H]1c1ncc(-c2ccc(-c3ccc4cc(-c5cnc([C@@H]6CCCN6C(=O)[C@@H](NC(=O)OC)C6CCOCC6)[nH]5)ccc4n3)cc2F)[nH]1)C(C)C [compound 123],< 1
6,COC(=O)N[C@H](C(=O)N1CCC[C@H]1c1ncc(-c2ccc(-c3ccc4cc(-c5cnc([C@@H]6CCCN6C(=O)[C@H](NC(=O)OC)c6ccccc6)[nH]5)ccc4n3)cc2F)[nH]1)C(C)C [compound 124],< 1
7,COC(=O)N[C@H](C(=O)N1CCC[C@H]1c1ncc(-c2ccc(-c3ccc4cc(-c5cnc([C@@H]6CCCN6C(=O)[C@H](NC(=O)OC6CCOCC6)c6ccccc6)[nH]5)ccc4n3)cc2F)[nH]1)C(C)C [compound 125],< 1
8,COC(=O)N[C@H](C(=O)N1CCC[C@H]1c1ncc(-c2ccc3nc(-c4ccc(-c5cnc([C@@H]6CCCN6C(=O)[C@@H](NC(=O)OC)C(C)C)[nH]5)c(F)c4)ccc3c2)[nH]1)C(C)C [compound 126],< 1
9,COC(=O)N[C@H](C(=O)N1CCC[C@H]1c1ncc(-c2ccc3cc(-c4ccc(-c5cnc([C@@H]6CCCN6C(=O)[C@H](NC(=O)OC)c6ccccc6)[nH]5)c(F)c4)ncc3c2)[nH]1)C1CCOCC1 [compound 127],< 1
10,COC(=O)N[C@H](C(=O)N1CCC[C@H]1c1ncc(-c2ccc(-c3cc4ccc(-c5cnc([C@@H]6CCCN6C(=O)[C@@H](NC(=O)OC)C6CCOCC6)[nH]5)cc4cn3)cc2F)[nH]1)C(C)C [compound 128],< 1
11,COC(=O)N[C@H](C(=O)N1CCC[C@H]1c1ncc(-c2ccc(-c3ccc4cc(-c5cnc([C@@H]6CCCN6C(=O)[C@H](NC(=O)OC)c6ccccc6)[nH]5)ccc4n3)c(F)c2)[nH]1)C1CCOCC1 [compound 129],< 1
12,COC(=O)N[C@H](C(=O)N1CCC[C@H]1c1ncc(-c2cccc(-c3cccc4cc(-c5cnc([C@@H]6CCCN6C(=O)[C@@H](NC(=O)OC)C(C)C)[nH]5)ccc34)c2)[nH]1)C(C)C [compound 130],< 1
13,COC(=O)N[C@H](C(=O)N1CCC[C@H]1c1ncc(-c2ccc3cc(-c4ccc(-c5cnc([C@@H]6COCCN6C(=O)[C@H](NC(=O)OC)c6ccccc6)[nH]5)cc4)ccc3c2)[nH]1)C(C)C [compound 131],< 1
14,COC(=O)N[C@H](C(=O)N1CCC[C@H]1c1ncc(-c2ccc(-c3ccc4cc(-c5cnc([C@@H]6COCCN6C(=O)[C@H](NC(=O)OC)c6ccccc6)[nH]5)ccc4c3)cc2)[nH]1)C(C)C [compound 132],< 1
15,COC(=O)N[C@H](C(=O)N1CCC[C@H]1c1ncc(-c2ccc(-c3ccc4cc(-c5cnc([C@@H]6CCCN6C(=O)[C@@H](NC(=O)OC)C6CCOCC6)[nH]5)ccc4c3)cc2)[nH]1)C1CCOCC1 [compound 133],< 1
16,COC(=O)N[C@H](C(=O)N1CCC[C@H]1c1ncc(-c2ccc3nc(-c4ccc(-c5cnc([C@@H]6CCCN6C(=O)[C@H](NC(=O)OC)c6ccccc6)[nH]5)cc4F)ccc3c2)[nH]1)C1CCOCC1 [compound 134],< 1
17,COC(=O)N[C@H](C(=O)N1CCC[C@H]1c1ncc(-c2ccc3nc(-c4ccc(-c5cnc([C@@H]6CCCN6C(=O)[C@H](NC(=O)OC(C)(C)C)c6ccccc6)[nH]5)cc4F)ccc3c2)[nH]1)C1CCOCC1 [compound 135],< 1
18,COC(=O)N[C@H](C(=O)N1CCC[C@H]1c1ncc(-c2ccc(-c3ccc4cc(-c5cnc([C@@H]6CCCN6C(=O)[C@H](NC(=O)OC(C)(C)C)c6ccccc6)[nH]5)ccc4n3)c(F)c2)[nH]1)C1CCOCC1 [compound 136],< 1
19,COC(=O)N[C@H](C(=O)N1CCOC[C@H]1c1ncc(-c2ccc(-c3ccc4cc(-c5cnc([C@@H]6CCCN6C(=O)[C@H](NC(=O)OC)c6ccccc6)[nH]5)ccc4c3)cc2)[nH]1)C(C)C [compound 137],< 1
20,COC(=O)N[C@H](C(=O)N1CCOC[C@H]1c1ncc(-c2ccc3cc(-c4ccc(-c5cnc([C@@H]6CCCN6C(=O)[C@H](NC(=O)OC)c6ccccc6)[nH]5)cc4)ccc3c2)[nH]1)C(C)C [compound 138],< 1

row,SMILES,EC50 [nM]
1,COC(=O)N[C@H](C(=O)N1CCC[C@H]1c1ncc(-c2ccc3cc(-c4ccc(-c5cnc([C@@H]6COCCN6C(=O)[C@@H](NC(=O)OC)C(C)C)[nH]5)cc4)ccc3c2)[nH]1)C(C)C [compound 139],< 1
2,COC(=O)N[C@H](C(=O)N1CCC[C@H]1c1ncc(-c2ccc(-c3ccc4cc(-c5cnc([C@@H]6COCCN6C(=O)[C@@H](NC(=O)OC)C(C)C)[nH]5)ccc4c3)cc2)[nH]1)C(C)C [compound 140],< 1
3,COC(=O)N[C@H](C(=O)N1CCC[C@H]1c1ncc(-c2ccc(-c3ccc4cc(-c5cnc([C@@H]6CCCN6C(=O)[C@@H](NC(=O)OC)C6CCOCC6)[nH]5)ccc4c3)c(F)c2)[nH]1)C1CCOCC1 [compound 141],< 1
4,CC[C@@H](C)[C@H](NC(=O)OC)C(=O)N1CCC[C@H]1c1ncc(-c2ccc(-c3ccc4cc(-c5cnc([C@@H]6CCCN6C(=O)[C@@H](NC(=O)OC)[C@H](C)CC)[nH]5)ccc4c3)cc2)[nH]1 [compound 142],< 1
5,COC(=O)N[C@H](C(=O)N1CCC[C@H]1c1ncc(-c2ccc(-c3ccc4cc(-c5cnc([C@@H]6CCCN6C(=O)[C@@H](NC(=O)OC)C6CC6)[nH]5)ccc4c3)cc2)[nH]1)C1CC1 [compound 143],< 1
6,CNC(=O)N[C@@H](C(=O)N1CCC[C@H]1c1ncc(-c2ccc(-c3cc4ccc(-c5cnc([C@@H]6CCCN6C(=O)[C@@H](NC(=O)OC)C6CCOCC6)[nH]5)cc4cn3)cc2)[nH]1)c1ccccc1 [compound 144],< 1
7,COC(=O)N[C@H](C(=O)N1CCC[C@H]1c1ncc(-c2ccc3cc(-c4ccc(-c5cnc([C@@H]6CCCN6C(=O)[C@H](NC(=O)NC6CC6)c6ccccc6)[nH]5)cc4)ncc3c2)[nH]1)C1CCOCC1 [compound 145],< 1
8,COC(=O)N[C@H](C(=O)N1CCC[C@H]1c1ncc(-c2ccc3nc(-c4ccc(-c5cnc([C@@H]6C[C@@H](O)CN6C(=O)[C@@H](NC(=O)OC)C(C)C)[nH]5)cc4)ccc3c2)[nH]1)C(C)C [compound 146],< 1
9,COC(=O)N[C@H](C(=O)N1C[C@H](O)C[C@H]1c1ncc(-c2ccc(-c3ccc4cc(-c5cnc([C@@H]6CCCN6C(=O)[C@@H](NC(=O)OC)C6CCOCC6)[nH]5)ccc4n3)cc2)[nH]1)C(C)C [compound 147],< 1
10,COC(=O)N[C@H](C(=O)N1C[C@H](O)C[C@H]1c1ncc(-c2ccc(-c3ccc4cc(-c5cnc([C@@H]6CCCN6C(=O)[C@H](NC(=O)OC)c6ccccc6)[nH]5)ccc4n3)cc2)[nH]1)C(C)C [compound 148],< 1
11,COC(=O)N[C@H](C(=O)N1C[C@H](O)C[C@H]1c1ncc(-c2ccc(-c3ccc4cc(-c5cnc([C@@H]6CCCN6C(=O)[C@H](NC(=O)OC6CCOCC6)c6ccccc6)[nH]5)ccc4n3)cc2)[nH]1)C(C)C [compound 149],< 1
12,COC(=O)N[C@H](C(=O)N1CCC[C@H]1c1ncc(-c2ccc(-c3cc4ccc(-c5cnc([C@@H]6CCCN6C(=O)[C@@H](NC(=O)OC)C(C)C)[nH]5)cc4cn3)c(F)c2)[nH]1)C(C)C [compound 150],< 1
13,COC(=O)N[C@H](C(=O)N1CCC[C@H]1c1ncc(-c2ccc3cc(-c4ccc(-c5cnc([C@@H]6CCCN6C(=O)[C@@H](NC(=O)OC)C6CCOCC6)[nH]5)cc4F)ncc3c2)[nH]1)C(C)C [compound 151],< 1
14,COC(=O)N[C@H](C(=O)N1CCC[C@H]1c1ncc(-c2ccc3cc(-c4ccc(-c5cnc([C@@H]6CCCN6C(=O)[C@H](NC(=O)OC)c6ccccc6)[nH]5)cc4F)ncc3c2)[nH]1)C(C)C [compound 152],< 1
15,COC(=O)N[C@H](C(=O)N1CCC[C@H]1c1ncc(-c2ccc3cc(-c4ccc(-c5cnc([C@@H]6CCCN6C(=O)[C@H](NC(=O)OC6CCOCC6)c6ccccc6)[nH]5)cc4F)ncc3c2)[nH]1)C(C)C [compound 153],< 1
16,COC(=O)N[C@H](C(=O)N1CCC[C@H]1c1ncc(-c2ccc3cc(-c4ccc(-c5cnc([C@@H]6CCCN6C(=O)[C@H](NC(=O)OC6CCOCC6)c6ccccc6)[nH]5)c(F)c4)ncc3c2)[nH]1)C1CCOCC1 [compound 154],< 1
17,COC(=O)N[C@H](C(=O)N1CCC[C@H]1c1ncc(-c2ccc3cc(-c4ccc(-c5cnc([C@@H]6CCCN6C(=O)[C@H](NC(=O)OC)c6ccccc6)[nH]5)c(F)c4)ncc3c2)[nH]1)C(C)C [compound 155],< 1
18,COC(=O)N[C@H](C(=O)N1CCC[C@H]1c1ncc(-c2ccc(-c3cc4ccc(-c5cnc([C@@H]6CCCN6C(=O)[C@H](NC(=O)OC6CCOCC6)c6ccccc6)[nH]5)cc4cn3)cc2F)[nH]1)C(C)C [compound 156],< 1
19,COC(=O)N[C@H](C(=O)N1CCC[C@H]1c1ncc(-c2ccc3cc(-c4ccc5nc([C@@H]6CCCN6C(=O)[C@@H](NC(=O)OC)C(C)C)[nH]c5c4)ccc3c2)[nH]1)C(C)C [compound 174],< 1
20,COC(=O)N[C@H](C(=O)N1CCC[C@H]1c1ncc(-c2ccc3cc(-c4ccc5nc([C@@H]6CCCN6C(=O)[C@@H](NC(=O)OC)[C@@H](C)O)[nH]c5c4)ccc3c2)[nH]1)[C@@H](C)O [compound 175],< 1
